Reference: ChEMBL document CHEMBL3044616, “Synthesis, crystal structure and -glucuronidase inhibition activity of some new hydrazinecarboxamides and their 1,2,4-triazole derivatives” (Med Chem Res, 2012)
The source made the active and inactive calls. No cut-off for these calls is given here.

Columns and labels:
[1] = system: Escherichia coli; assay: Inhibition of Escherichia coli beta-glucuronidase using para-nitrophenyl-beta-D-glucuronide as substrate at 0.2 mM incubated for 30 min prior to substrate addition measured for 30 min by spectrophotometric analysis
[2] = Inhibition of Escherichia coli beta-glucuronidase using para-nitrophenyl-beta-D-glucuronide as substrate incubated for 30 min prior to substrate addition measured for 30 min by spectrophotometric analysis

| Compound | inhibition [1] | IC50 [2] [µM] |
| --- | --- | --- |
| O=C(O)[C@@H](O)[C@H]1OC(=O)[C@H](O)[C@H]1O | 86.2% | – |
| COc1cccc(CCC(=O)NNC(=O)Nc2ccccc2OC)c1 | 82.9% | 52.4 |
| COc1ccccc1CCC(=O)NNC(=O)Nc1ccccc1OC | 77.6% | 67.3 |
| COc1ccccc1CC(=O)NNC(=O)Nc1ccccc1OC | 88.8% | 40.7 |
| COc1cccc(NC(=O)NNC(=O)CCc2ccccc2OC)c1 | 54.6% | 83.7 |
| COc1ccc(CCC(=O)NNC(=O)Nc2cccc(OC)c2)cc1 | 59.3% | 96.7 |
| COc1cccc(CC(=O)NNC(=O)Nc2ccccc2OC)c1 | 68.3% | 134 |
| COc1ccc(NC(=O)NNC(=O)CCc2ccccc2OC)cc1 | 87.9% | 15.5 |
| COc1cccc(NC(=O)NNC(=O)Cc2ccccc2OC)c1 | 46.5% | – |
| COc1ccc(CC(=O)NNC(=O)Nc2ccccc2OC)cc1 | 94.5% | 16.8 |
| COc1cccc(CC(=O)NNC(=O)Nc2cccc(OC)c2)c1 | 70.8% | 101 |
| COc1cccc(Cc2n[nH]c(=O)n2-c2cccc(OC)c2)c1 | inactive | – |
| COc1ccc(CCC(=O)NNC(=O)Nc2ccccc2OC)cc1 | 83.7% | 46.1 |
| COc1ccc(CCc2n[nH]c(=O)n2-c2cccc(OC)c2)cc1 | inactive | – |
| COc1cccc(CCC(=O)NNC(=O)Nc2cccc(OC)c2)c1 | 52% | 179 |
| COc1ccc(NC(=O)NNC(=O)CCc2cccc(OC)c2)cc1 | 73.3% | 74.5 |

More lines, now with the values ahead:

| inhibition [1] | IC50 [2] [µM] | Compound |
| --- | --- | --- |
| inactive | – | COc1cccc(Cc2n[nH]c(=O)n2-c2ccccc2OC)c1 |
| inactive | – | COc1cccc(-n2c(CCc3ccccc3OC)n[nH]c2=O)c1 |
| inactive | – | COc1ccc(CCc2n[nH]c(=O)n2-c2ccccc2OC)cc1 |
| inactive | – | COc1cccc(-n2c(Cc3ccccc3OC)n[nH]c2=O)c1 |
| inactive | – | COc1ccc(-n2c(CCc3ccccc3OC)n[nH]c2=O)cc1 |
| inactive | – | COc1ccc(Cc2n[nH]c(=O)n2-c2ccccc2OC)cc1 |
| inactive | – | COc1ccccc1Cc1n[nH]c(=O)n1-c1ccccc1OC |
| inactive | – | COc1cccc(CCc2n[nH]c(=O)n2-c2cccc(OC)c2)c1 |
| inactive | – | COc1cccc(CCc2n[nH]c(=O)n2-c2ccccc2OC)c1 |
| inactive | – | COc1ccccc1CCc1n[nH]c(=O)n1-c1ccccc1OC |
